Measured values published in US6794126B2, “Methods for preventing or inhibiting neuronal cell death” (The Trustees of Columbia University in the City of New York, priority 1996, dated 2004).
Entries after “also recorded” stand apart in the source; their conditions may differ. Residues, ends and D or L forms follow the SMILES beside them. *: point of attachment. Cbz = O=C(OCc1ccccc1)*; CH2F = FC*

What was measured:
sympathetic neurons [1] = assay: Survival of sympathetic neurons exposed to UV irradiation; format: cell-based, rat; settings: for survival of UV-treated sympathetic neurons: NGF present, pretreated before UV, flavopiridol 1 mM (sic, FIG. 6A), olomoucine 200 μM, isoolomoucine 200 μM, aphidicolin 10 μM; for concentration of maximal protection: UV-treated, day 1
Protocol: Cells were exposed to UV irradiation using the Stratolinker UV crosslinker (Stratagene®). Sympathetic neurons were exposed to 3×10^4 μJ while neuronal PC12 cells were exposed to […]. Each well was exposed with 200 μl of medium containing NGF with or without the appropriate drug. After irradiation 300 μl of additional medium containing NGF with or without drug was added.
(§1) The cells were plated onto collagen-coated 24-well dishes at a density of approximately 0.5 ganglia per well and maintained in RPMI 1640 medium supplemented with 10% heat-inactivated horse serum and 60 ng/ml mouse NGF for a period of three days prior to the survival experiment. A mixture of uridine and 5-fluorodeoxyuridine (10 mM each) was also added to eliminate non-neuronal cells on day two. No pretreatment with survival agent, unless otherwise noted, was necessary for effective survival of neurons exposed to AraC. In the case of UV irradiation, the neurons died quite rapidly. Accordingly, neuronal cultures were pretreated overnight (18 hr) with survival-promoting agents prior to UV irradiation. NGF deprivation was performed by washing with NGF-free medium and addition of anti-NGF antiserum as previously described (Park et al., 1996a). V-ASOD1 oligonucleotides, in conjunction with the nitric oxide generator, S-nitrosopenicillamine (SNAP; 100 μM) were added to the cultured sympathetic neurons as previously described (Troy et al., 1997). At appropriate times, the numbers of viable, phase bright neurons were determined by strip counting as previously described (Rydel and Greene; 1988). All experimental points are expressed relative to the original number of neurons present in each well and are reported as mean+/−SEM (n=3).

sympathetic neurons [2] = assay: Survival of sympathetic neurons treated with AraC; format: cell-based; settings: for survival of AraC-treated sympathetic neurons: NGF present, flavopiridol 1 mM, olomoucine 200 mM (printed, FIG. 8), isoolomoucine 200 μM, aphidicolin 10 μM; for maximal concentration required to protect from AraC: day 3; for toxicity of the CDK inhibitors to sympathetic neurons: beyond five days, even without AraC treatment
Protocol: A mixture of uridine and 5-fluorodeoxyuridine (10 mM each) was also added to eliminate non-neuronal cells on day two. No pretreatment with survival agent, unless otherwise noted, was necessary for effective survival of neurons exposed to AraC. In the case of UV irradiation, the neurons died quite rapidly. Accordingly, neuronal cultures were pretreated overnight (18 hr) with survival-promoting agents prior to UV irradiation. […] All experimental points are expressed relative to the original number of neurons present in each well and are reported as mean+/−SEM (n=3).

sympathetic neurons [3] = assay: Survival of sympathetic neurons depleted of SOD1 (V-ASOD1 plus SNAP); format: cell-based, rat
Protocol: as §1

sympathetic neurons [4] = assay: Survival of sympathetic neurons deprived of NGF (Example 2); format: cell-based, rat; settings: for death of sympathetic neurons deprived of NGF: CDK inhibitors, same experiments as SOD1 depletion (FIG. 10)
Protocol: as §1

neuronal PC12 cells = assay: Survival of neuronal PC12 cells depleted of SOD1 (Example 2); format: cell-based, rat
Protocol: Naive PC12 cells were cultured and passaged as previously described (Greene and Tischler, 1976). Neuronally-differentiated PC12 cells were generated by exposing PC12 cells to NGF in serum-free RPMI 1640 medium for 8-9 days. For survival experiments, neuronally-differentiated PC12 cells were plated onto collagen-coated 24-well tissue culture dishes at a density of approximately 2×10^5 cells per well. Neuronally-differentiated PC12 cells were cultured in serum-free RPMI 1640 medium containing NGF (100 ng/ml) throughout the course of survival experiments. At appropriate times of culture under the conditions described in the text, cells were lysed and the numbers of viable cells was evaluated as previously described (Rukenstein et al., 1991). All experimental points are expressed as a percentage of cells plated on day 0 and are reported as mean +/−SEM (n=3).

proliferating PC12 cells = proliferating PC12 cells (Park et al., 1996a); cited from earlier work
PC12 cells [5] = assay: PC12 cell survival after withdrawal of serum/NGF (trophic factor deprivation); format: cell-based, rat
Protocol: (§2) PC12 cells were grown as previously described (Greene and Tishcler, 1976) on rat-tail collagen-coated dishes in RPMI 1640 medium containing 5% fetal calf serum and 10% heat-inactivated horse serum (complete medium). NGF primed PC12 cells were grown for at least 7 days in RPMI 1640 medium plus 1% horse serum and NGF (100 ng/ml). For cell survival assays involving trophic factor deprivation, cells (either naive or NGF-pretreated) were extensively washed in serum-free RPMI 1640 medium and re-plated on fresh collagen-coated 24-well dishes as previously described (Rukenstein et al., 1991) in RPMI 1640 medium lacking serum or NGF. For SOD1 down-regulation survival assays, cells were re-plated in complete medium with V-ASOD1 (vector linked antisense oligonucleotide to SOD1, 50 nM). Various concentrations of ICE inhibitors were included in the medium as indicated. Numbers of viable cells per culture were determined by quantifying intact nuclei as previously described (Rukenstein et al., 1991). Counts were performed in triplicate and reported as means±SEM.

sympathetic neurons [6] = assay: Survival of cultured sympathetic neurons after NGF withdrawal (Example 1); format: cell-based, rat
Protocol: Sympathetic neuron cultures were prepared from 2 day old rat pups, as previously described (Ferrari et al., 1995). Cultures were grown in 24-well collagen coated dishes in RPMI 1640 medium plus 10% horse serum with mouse NGF (100 ng/ml). One day following plating, uridine and 5-fluorodeoxyuridine (10 μM each) were added to the cultures and left for three days to eliminate non-neuronal cells. On the sixth day following plating NGF was removed by washing the cultures three times with RPMI 1640 medium plus 10% horse serum, followed by the addition of medium containing anti-mouse NGF (1:200, Sigma) with or without ICE inhibitors. Each culture was scored, as previously described (Rydel and Greene, 1988), as numbers of living, phase-bright neurons at various times. Three replicate cultures were assessed for each condition and data were normalized to numbers of neurons present in each culture at the time of NGF withdrawal and reported as mean±SEM.

PC12 cells [7] = assay: PC12 cell survival after SOD1 down-regulation by V-ASOD1; format: cell-based, rat
Protocol: as §2

IL-1β = assay: Assay of IL-1β secreted by PC12 cells (ELISA); format: cell-based, rat; settings: 24 h
Protocol: IL-1β was quantified by ELISA using the Intertest-1βX kit (Genzyme, Cambridge, Mass.). PC12 cells were grown as described above, on 24-well plates, in 500 μl of medium. After one day incubation, medium was removed and IL-1β measured following the manufacturer's instructions, and number of viable cells in each well quantified.

sympathetic neurons [8] = assay: Survival of sympathetic neurons exposed to camptothecin; format: cell-based, rat; settings: V-linked peptides

CN1CC[C@H](c2c(O)cc(O)c3c(=O)cc(-c4ccccc4Cl)oc23)[C@H](O)C1 [flavopiridol]
survival of UV-treated sympathetic neurons (sympathetic neurons [1]): effectively promoted survival | concentration of maximal protection (sympathetic neurons [1]): 1 to 3 µM | survival of AraC-treated sympathetic neurons (sympathetic neurons [2]; AraC 100 μM): quite effectively promoted long term survival | maximal concentration required to protect from AraC (sympathetic neurons [2]; AraC 100 μM): 1 µM | toxicity of the CDK inhibitors to sympathetic neurons (sympathetic neurons [2]): toxicity | protection of sympathetic neurons depleted of SOD1 (sympathetic neurons [3]; ASOD1 50 nM with SNAP 100 μM): neither flavopiridol nor olomoucine protected | death of sympathetic neurons deprived of NGF (sympathetic neurons [4]): effectively blocked the death | death of neuronal PC12 cells depleted of SOD1 (neuronal PC12 cells): failed to inhibit death | minimum concentration required to fully inhibit DNA synthesis (proliferating PC12 cells): 1 µM

CC(C)[C@H](NC(=O)[C@H](Cc1ccc(O)cc1)NC(=O)OCc1ccccc1)C(=O)N[C@@H](C)C(=O)N[C@@H](CC(=O)O)C(=O)CCl [ZYVAD-CMK, ZYVAD-chloromethylketone]
protection from trophic factor withdrawal (PC12 cells [5]; 250 μM): only partially effective; also recorded: partial protection | protection from NGF deprivation (sympathetic neurons [6]; 250 μM): no effect | protection from SOD1 down-regulation (PC12 cells [7]; 50 μM): full protection

C[C@@]1(CO)[C@H](O)CC[C@@]2(C)[C@H]1CC[C@H]1C[C@@H]3C[C@@]12CC[C@]3(O)CO [aphidicolin]
survival of UV-treated sympathetic neurons (sympathetic neurons [1]): failed to block death | survival of AraC-treated sympathetic neurons (sympathetic neurons [2]; AraC 100 μM): failed to block death

Cn1cnc2nc(NCCO)nc(NCc3ccccc3)c21 [isoolomoucine]
survival of UV-treated sympathetic neurons (sympathetic neurons [1]): nearly ineffective | survival of AraC-treated sympathetic neurons (sympathetic neurons [2]; AraC 100 μM): ineffective

Cn1cnc2c(NCc3ccccc3)nc(NCCO)nc21 [olomoucine, 2-(2-hydroxyethylamino)-6-benzylamino-9-methylpurine]
survival of UV-treated sympathetic neurons (sympathetic neurons [1]): effectively promoted survival | concentration of maximal protection (sympathetic neurons [1]): 200 µM | survival of AraC-treated sympathetic neurons (sympathetic neurons [2]; AraC 100 μM): quite effectively promoted long term survival | maximal concentration required to protect from AraC (sympathetic neurons [2]; AraC 100 μM): 200 µM | toxicity of the CDK inhibitors to sympathetic neurons (sympathetic neurons [2]): toxicity | protection of sympathetic neurons depleted of SOD1 (sympathetic neurons [3]; ASOD1 50 nM with SNAP 100 μM): neither flavopiridol nor olomoucine protected | death of sympathetic neurons deprived of NGF (sympathetic neurons [4]): effectively blocked the death | death of neuronal PC12 cells depleted of SOD1 (neuronal PC12 cells): failed to inhibit death | minimum concentration required to fully inhibit DNA synthesis (proliferating PC12 cells): 200 µM

CC[C@H](C)[C@H](N)C(=O)N[C@@H](CCC(N)=O)C(=O)N[C@@H](C)C(=O)N[C@@H](CSSC[C@H](N)C(=O)N[C@@H](CCCNC(=N)N)C(=O)N[C@@H](CCC(N)=O)C(=O)N[C@H](C(=O)N[C@@H](CCCCN)C(=O)N[C@H](C(=O)N[C@@H](Cc1c[nH]c2ccccc12)C(=O)N[C@@H](Cc1ccccc1)C(=O)N[C@@H](CCC(N)=O)C(=O)N[C@@H](CC(N)=O)C(=O)N[C@@H](CCCNC(=N)N)C(=O)N[C@@H](CCCNC(=N)N)C(=O)N[C@@H](CCSC)C(=O)N[C@@H](CCCCN)C(=O)N[C@@H](Cc1c[nH]c2ccccc12)C(=O)N[C@@H](CCCCN)C(=O)N[C@@H](CCCCN)C(=O)O)[C@@H](C)CC)[C@@H](C)CC)C(=O)N[C@@H](CCCNC(=N)N)C(=O)NCC(=O)O [V-ICEinh]
time of partial protection (PC12 cells [5]; naive and primed PC12 cells, serum/NGF withdrawal): at least 8 days | peptide concentration giving complete protection from death (PC12 cells [5]; naive and primed PC12 cells, serum/NGF withdrawal, 24 hours): 200 to 400 nM | time for which death was retarded (sympathetic neurons [6]; 50 nM, NGF-deprived): at least 6 days | time of complete protection from death (sympathetic neurons [6]; 50 nM, NGF-deprived): 3 days | effect on the capacity of ASOD1 to lower cellular SOD1 (PC12 cells [7]): no effect | dose required for maximal protection (PC12 cells [7]; V-ASOD1 50 nM, one day): 0.025 to 0.05 µM | protection from death induced by down-regulation of SOD1 (PC12 cells [7]; naive and NGF-treated PC12 cells, V-ASOD1 50 nM, one day): protects | increase in IL-1β secretion per cell after SOD1 down-regulation (IL-1β; V-ICEinh 25 nM for V-ASOD1 treatment): blocked | death of sympathetic neurons exposed to UV (sympathetic neurons [1]; 200 nM, pretreated 18 hr): blocked death | death of AraC-treated sympathetic neurons (sympathetic neurons [2]; 200 nM, AraC 100 μM): blocked death | death of sympathetic neurons depleted of SOD1 (sympathetic neurons [3]; V-linked peptides): blocked death | protection from NGF deprivation (sympathetic neurons [4]; 200 nM, pretreated 18 hr): protected | death of sympathetic neurons exposed to camptothecin (sympathetic neurons [8]): blocked death

COC(=O)C[C@H](NC(=O)[C@H](C)NC(=O)[C@@H](NC(=O)OCc1ccccc1)C(C)C)C(=O)CF [ZVAD-FMK, ZVAD-fluoromethylketone] (Cbz-Val-Ala-Asp(OMe)-CH2F)
concentration required to be fully protective (PC12 cells [5]; serum withdrawal, one day): 50 µM | protection from NGF deprivation (sympathetic neurons [6]; 100 μM): protected | dose required for maximal protection (PC12 cells [7]; V-ASOD1 50 nM, one day): 6 µM | survival of sympathetic cultures exposed to UV irradiation (sympathetic neurons [1]; 50 μM, pretreated 16 hr): ineffective | survival of sympathetic cultures exposed to AraC (sympathetic neurons [2]; 50 μM, AraC 100 μM): ineffective | protection of sympathetic neurons depleted of SOD1 (sympathetic neurons [3]; 50 μM, exposed to nitric oxide generators): protected | protection from death due to NGF-depletion (sympathetic neurons [4]; 50 μM): protects

CC(=O)N[C@@H](Cc1ccc(O)cc1)C(=O)N[C@H](C(=O)N[C@@H](C)C(=O)N[C@@H](CC(=O)O)C(=O)CCl)C(C)C [acYVAD-cmk]
death evoked by SOD1 depletion (sympathetic neurons [3]; 250 μM, two days, ASOD1 with SNAP 100 μM): blocks death | death due to NGF deprivation (sympathetic neurons [4]; 250 μM, two days): not death due to NGF deprivation

B1: rmIL-1Ra: IL-1 receptor antagonist (protein, UniProt P25085 27-178, looked up)
Interleukin-1 receptor …: RPSGKRPCKMQAFRIWDTNQKTFYLRNNQLIAGYLQGPNIKLEEKIDMVPIDLHSVFLGIHGGKLCLSCAKSGDDIKLQLEEVNITDLSKNKEEDKRFTFIRSEKGPTTSFESAACPGWFLCTTLEADRPVSLTNTPEEPLIVTKFYFQEDQ
protection from trophic factor withdrawal (PC12 cells [5]; 10,000 ng/ml, one day): improved survival under these conditions only modestly | suppression of cell death of V-ASOD1 treated PC12 cells (PC12 cells [7]; 100 ng/ml): completely suppressed cell death

B2: NGF: nerve growth factor (mouse NGF) (protein, UniProt P01139 122-241, looked up)
Beta-nerve growth factor: SSTHPVFHMGEFSVCDSVSVWVGDKTTATDIKGKEVTVLAEVNINNSVFRQYFFETKCRASNPVESGCRGIDSKHWNSYCTTTHTFVKALTTDEKQAAWRFIRIDTACVCVLSRKATRRG
increase in IL-1β secretion (IL-1β; cells treated with NGF): 4 fold
